Structures are written as SMILES.

One test concerns the target T1, MCT1 (Homo sapiens, UniProt P53985).
T1 construct: gene SLC16A1
T1 sequence (P53985 1-500): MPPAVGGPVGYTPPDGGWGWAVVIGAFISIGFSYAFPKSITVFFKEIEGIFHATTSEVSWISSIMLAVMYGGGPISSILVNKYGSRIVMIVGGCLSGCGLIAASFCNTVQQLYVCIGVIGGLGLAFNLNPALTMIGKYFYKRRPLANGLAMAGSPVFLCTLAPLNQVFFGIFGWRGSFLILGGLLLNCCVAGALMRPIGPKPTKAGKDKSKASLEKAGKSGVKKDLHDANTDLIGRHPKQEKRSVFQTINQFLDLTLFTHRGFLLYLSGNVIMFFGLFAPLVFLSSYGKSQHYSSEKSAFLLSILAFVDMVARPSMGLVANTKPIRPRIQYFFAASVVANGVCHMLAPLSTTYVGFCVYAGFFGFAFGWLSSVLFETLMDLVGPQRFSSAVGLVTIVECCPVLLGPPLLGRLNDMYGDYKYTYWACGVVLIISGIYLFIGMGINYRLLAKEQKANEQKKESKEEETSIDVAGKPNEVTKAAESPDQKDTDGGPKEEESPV
Nature of the test: SPA competition binding, […]-MCT1 ligand displacement on Jurkat cell membranes; also Ki […] on recombinant human MCT1 yeast membranes. The following applies: read-out: AZD3965.

A further test addresses T2, MCT2 (Homo sapiens, UniProt O60669).
T2 construct: gene SLC16A7
As to conditions: read-out: AZD3965.

T2 sequence (O60669 whole entry): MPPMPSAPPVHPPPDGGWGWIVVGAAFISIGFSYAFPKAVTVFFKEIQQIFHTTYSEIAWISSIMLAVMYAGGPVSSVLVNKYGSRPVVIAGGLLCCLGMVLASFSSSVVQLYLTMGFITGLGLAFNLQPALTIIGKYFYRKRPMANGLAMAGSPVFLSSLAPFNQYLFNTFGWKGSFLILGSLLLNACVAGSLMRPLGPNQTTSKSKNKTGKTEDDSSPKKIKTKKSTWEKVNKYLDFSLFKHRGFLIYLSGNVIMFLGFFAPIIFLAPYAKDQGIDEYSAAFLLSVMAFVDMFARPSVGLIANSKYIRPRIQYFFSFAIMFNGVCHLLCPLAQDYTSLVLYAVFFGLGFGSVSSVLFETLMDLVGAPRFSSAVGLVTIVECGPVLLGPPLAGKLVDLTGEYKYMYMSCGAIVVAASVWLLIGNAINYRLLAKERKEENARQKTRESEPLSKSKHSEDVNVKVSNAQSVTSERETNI

As to `Cc1[nH]nc(C(F)(F)F)c1Cc1sc2c(c1C(=O)N1C[C@](C)(O)CO1)c(=O)n(C)c(=O)n2C(C)C` [AZD3965], the values for the Ki at MCT1 and at MCT2 were 0.0016 µM and 0.02 µM, respectively.

(Values after publication PMC5642474, “Pre-clinical pharmacology of AZD3965, a selective inhibitor of MCT1: DLBCL, NHL and Burkitt’s lymphoma anti-tumor activity” (Oncotarget, 2017).)
